Results as given in ChEMBL document CHEMBL1201862, “PubChem BioAssay data set” (2004).
Active and inactive are the calls of the source.

Experiments:
BJ [1] = test: cytotoxicity toward BJ-TERT-LT-ST fibroblasts, dose response, cell-based, RAS-independent, luminescence (AID 1935); format: functional; conditions: Homo sapiens;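 note: BJ fibroblasts immortalized with TERT plus LT and ST oncogenes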
Vero = test: cells; format: functional; conditions: Chlorocebus sabaeus
[2] = cytotoxicity toward DRD oncogenic fibroblasts, dose response, cell-based, non-viral oncogenic, luminescence (AID 1934); format: functional; conditions: Homo sapiens
[3] = Counterscreen for AddAB inhibitors: absorbance-based bacterial cell-based high throughput dose response assay for inhibitors of bacterial viability. [Related pubchem assays (depositor defined):AID435030, AID449728, AID449731, AID488942, AID488955, AID488956]; format: functional
BJ [4] = test: cytotoxicity toward BJ-TERT fibroblasts, dose response, cell-based, RAS-independent, luminescence (AID 1933); format: functional; conditions: Homo sapiens
Exodeoxyribonuclease V = Exodeoxyribonuclease V (Escherichia coli (strain K12), UniProt P04993+P07648+P08394); test: E. coli RecBCD inhibitors, dose response, counter-screen for AddAB inhibitor project, absorbance, V66 E. coli, mutant T4 phage (AID 492957); format: functional, cell-based, Escherichia coli str. K-12 substr. MG1655
Exodeoxyribonuclease V, sequence (P04993 whole entry, the tested form may be a part): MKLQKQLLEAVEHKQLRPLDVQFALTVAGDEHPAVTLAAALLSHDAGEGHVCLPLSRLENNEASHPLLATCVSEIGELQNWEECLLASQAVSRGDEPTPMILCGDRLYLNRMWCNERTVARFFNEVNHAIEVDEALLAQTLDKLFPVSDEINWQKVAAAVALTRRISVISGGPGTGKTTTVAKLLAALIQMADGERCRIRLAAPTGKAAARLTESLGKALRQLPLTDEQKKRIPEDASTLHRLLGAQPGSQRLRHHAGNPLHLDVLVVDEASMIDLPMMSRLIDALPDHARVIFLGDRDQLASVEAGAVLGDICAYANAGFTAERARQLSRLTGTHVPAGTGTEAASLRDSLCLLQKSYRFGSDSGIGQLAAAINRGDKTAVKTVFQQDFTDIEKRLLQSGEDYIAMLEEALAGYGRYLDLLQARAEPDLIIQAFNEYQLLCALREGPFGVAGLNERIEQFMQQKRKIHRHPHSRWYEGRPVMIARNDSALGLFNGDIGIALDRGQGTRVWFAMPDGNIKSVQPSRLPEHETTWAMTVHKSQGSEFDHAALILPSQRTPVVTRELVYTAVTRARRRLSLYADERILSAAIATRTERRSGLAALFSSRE
Exodeoxyribonuclease V, sequence (P07648 whole entry, the tested form may be a part): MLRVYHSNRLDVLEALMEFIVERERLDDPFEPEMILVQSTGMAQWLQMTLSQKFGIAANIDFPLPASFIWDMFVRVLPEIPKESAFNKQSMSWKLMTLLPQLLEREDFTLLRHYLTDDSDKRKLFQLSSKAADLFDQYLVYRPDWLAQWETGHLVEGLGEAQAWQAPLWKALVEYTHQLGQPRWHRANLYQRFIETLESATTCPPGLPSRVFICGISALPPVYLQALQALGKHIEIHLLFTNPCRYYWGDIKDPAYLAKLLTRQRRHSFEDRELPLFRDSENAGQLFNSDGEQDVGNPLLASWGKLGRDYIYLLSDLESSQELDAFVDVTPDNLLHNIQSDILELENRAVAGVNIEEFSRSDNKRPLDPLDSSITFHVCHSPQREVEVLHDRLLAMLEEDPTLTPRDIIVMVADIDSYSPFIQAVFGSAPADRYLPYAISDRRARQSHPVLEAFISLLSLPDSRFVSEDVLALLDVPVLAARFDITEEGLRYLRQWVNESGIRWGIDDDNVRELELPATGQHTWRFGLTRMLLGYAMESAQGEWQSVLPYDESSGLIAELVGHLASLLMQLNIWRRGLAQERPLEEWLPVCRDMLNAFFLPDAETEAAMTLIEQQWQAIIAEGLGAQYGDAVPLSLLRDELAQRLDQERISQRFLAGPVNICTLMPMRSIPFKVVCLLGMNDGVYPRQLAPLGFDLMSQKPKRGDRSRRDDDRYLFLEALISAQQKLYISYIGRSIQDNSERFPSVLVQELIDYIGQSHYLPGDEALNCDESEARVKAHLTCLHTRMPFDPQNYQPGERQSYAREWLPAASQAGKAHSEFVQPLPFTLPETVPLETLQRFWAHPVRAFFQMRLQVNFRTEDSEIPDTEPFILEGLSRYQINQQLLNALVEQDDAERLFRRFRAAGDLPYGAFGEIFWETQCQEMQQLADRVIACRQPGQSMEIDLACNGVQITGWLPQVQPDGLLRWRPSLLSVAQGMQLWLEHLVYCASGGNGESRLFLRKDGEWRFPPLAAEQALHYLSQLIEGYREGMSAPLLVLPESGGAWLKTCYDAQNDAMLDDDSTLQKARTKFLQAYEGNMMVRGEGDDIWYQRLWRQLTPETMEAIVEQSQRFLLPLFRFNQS
Exodeoxyribonuclease V, sequence (P08394 whole entry, the tested form may be a part): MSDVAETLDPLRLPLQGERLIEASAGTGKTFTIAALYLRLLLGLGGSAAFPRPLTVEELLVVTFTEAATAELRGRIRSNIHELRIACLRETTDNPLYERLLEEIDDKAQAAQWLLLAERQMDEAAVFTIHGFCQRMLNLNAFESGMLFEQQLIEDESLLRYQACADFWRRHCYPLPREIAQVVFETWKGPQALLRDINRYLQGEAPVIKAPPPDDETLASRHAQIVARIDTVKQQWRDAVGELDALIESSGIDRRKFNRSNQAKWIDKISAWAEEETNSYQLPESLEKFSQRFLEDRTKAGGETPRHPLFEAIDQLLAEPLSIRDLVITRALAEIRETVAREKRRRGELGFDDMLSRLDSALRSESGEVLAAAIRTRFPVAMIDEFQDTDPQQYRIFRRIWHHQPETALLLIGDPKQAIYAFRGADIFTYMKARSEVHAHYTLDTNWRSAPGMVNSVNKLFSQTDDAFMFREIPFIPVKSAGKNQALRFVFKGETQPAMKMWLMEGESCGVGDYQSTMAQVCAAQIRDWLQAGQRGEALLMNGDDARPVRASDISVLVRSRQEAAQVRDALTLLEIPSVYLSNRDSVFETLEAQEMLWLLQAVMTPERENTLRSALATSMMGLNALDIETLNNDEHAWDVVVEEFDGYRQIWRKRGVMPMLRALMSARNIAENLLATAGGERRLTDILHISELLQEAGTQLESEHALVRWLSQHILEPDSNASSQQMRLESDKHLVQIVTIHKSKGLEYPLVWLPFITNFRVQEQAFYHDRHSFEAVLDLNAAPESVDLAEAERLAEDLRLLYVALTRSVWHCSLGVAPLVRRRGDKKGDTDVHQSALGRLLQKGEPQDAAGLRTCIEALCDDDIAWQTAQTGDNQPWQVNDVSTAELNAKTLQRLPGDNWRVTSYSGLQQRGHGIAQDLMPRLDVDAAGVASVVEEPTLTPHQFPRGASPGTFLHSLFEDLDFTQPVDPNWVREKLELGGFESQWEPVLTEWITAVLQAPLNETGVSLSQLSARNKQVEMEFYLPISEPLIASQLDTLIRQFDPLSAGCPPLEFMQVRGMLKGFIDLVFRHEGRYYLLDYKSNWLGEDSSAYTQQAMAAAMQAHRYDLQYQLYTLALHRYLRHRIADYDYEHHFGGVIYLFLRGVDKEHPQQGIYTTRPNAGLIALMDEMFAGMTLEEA

[5] = biological target: Nucleotide-binding oligomerization domain-containing protein 2 (Homo sapiens, UniProt Q9HC29); test: NOD2 signaling inhibitors, analog potency, SAR follow-up, cell-based, set 3 (AID 2799); format: functional
Nucleotide-binding oligomerization domain-containing protein 2, sequence (Q9HC29 whole entry, the tested form may be a part): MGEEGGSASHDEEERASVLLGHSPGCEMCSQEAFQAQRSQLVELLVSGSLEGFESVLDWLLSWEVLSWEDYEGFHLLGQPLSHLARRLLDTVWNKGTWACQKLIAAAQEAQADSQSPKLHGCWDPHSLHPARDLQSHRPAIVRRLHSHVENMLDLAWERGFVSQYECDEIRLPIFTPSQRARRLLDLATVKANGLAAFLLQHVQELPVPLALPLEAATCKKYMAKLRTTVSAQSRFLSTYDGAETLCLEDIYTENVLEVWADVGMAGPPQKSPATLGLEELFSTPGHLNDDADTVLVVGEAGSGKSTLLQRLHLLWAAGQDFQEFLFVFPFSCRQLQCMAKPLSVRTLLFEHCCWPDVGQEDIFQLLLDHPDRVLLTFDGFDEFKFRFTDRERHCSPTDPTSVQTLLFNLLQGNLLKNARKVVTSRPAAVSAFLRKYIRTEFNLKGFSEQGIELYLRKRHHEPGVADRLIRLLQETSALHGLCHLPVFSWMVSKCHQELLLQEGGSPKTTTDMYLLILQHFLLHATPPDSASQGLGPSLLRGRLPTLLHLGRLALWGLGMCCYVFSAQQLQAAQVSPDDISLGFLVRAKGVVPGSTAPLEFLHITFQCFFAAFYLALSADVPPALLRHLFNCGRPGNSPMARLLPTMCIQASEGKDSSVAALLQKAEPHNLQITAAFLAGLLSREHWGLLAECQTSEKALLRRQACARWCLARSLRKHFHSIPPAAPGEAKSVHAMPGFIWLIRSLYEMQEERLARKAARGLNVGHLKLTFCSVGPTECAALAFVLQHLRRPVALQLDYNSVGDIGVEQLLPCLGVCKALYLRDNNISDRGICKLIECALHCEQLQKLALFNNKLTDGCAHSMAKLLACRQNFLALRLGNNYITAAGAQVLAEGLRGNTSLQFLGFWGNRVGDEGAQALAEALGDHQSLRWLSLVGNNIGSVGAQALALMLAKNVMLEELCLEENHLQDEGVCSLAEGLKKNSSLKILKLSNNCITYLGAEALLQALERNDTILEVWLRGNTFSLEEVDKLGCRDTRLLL

[6] = biological target: T1, Nucleotide-binding oligomerization domain-containing protein 1 (Homo sapiens, UniProt Q9Y239); test: SAR analysis of compounds that inhibit NOD1 - Set 3. [Related pubchem assays (depositor defined):AID1566, AID1575, AID1578, AID1849, AID1852, AID2333, AID2335, AID2466]; format: functional
T1 sequence (Q9Y239 whole entry): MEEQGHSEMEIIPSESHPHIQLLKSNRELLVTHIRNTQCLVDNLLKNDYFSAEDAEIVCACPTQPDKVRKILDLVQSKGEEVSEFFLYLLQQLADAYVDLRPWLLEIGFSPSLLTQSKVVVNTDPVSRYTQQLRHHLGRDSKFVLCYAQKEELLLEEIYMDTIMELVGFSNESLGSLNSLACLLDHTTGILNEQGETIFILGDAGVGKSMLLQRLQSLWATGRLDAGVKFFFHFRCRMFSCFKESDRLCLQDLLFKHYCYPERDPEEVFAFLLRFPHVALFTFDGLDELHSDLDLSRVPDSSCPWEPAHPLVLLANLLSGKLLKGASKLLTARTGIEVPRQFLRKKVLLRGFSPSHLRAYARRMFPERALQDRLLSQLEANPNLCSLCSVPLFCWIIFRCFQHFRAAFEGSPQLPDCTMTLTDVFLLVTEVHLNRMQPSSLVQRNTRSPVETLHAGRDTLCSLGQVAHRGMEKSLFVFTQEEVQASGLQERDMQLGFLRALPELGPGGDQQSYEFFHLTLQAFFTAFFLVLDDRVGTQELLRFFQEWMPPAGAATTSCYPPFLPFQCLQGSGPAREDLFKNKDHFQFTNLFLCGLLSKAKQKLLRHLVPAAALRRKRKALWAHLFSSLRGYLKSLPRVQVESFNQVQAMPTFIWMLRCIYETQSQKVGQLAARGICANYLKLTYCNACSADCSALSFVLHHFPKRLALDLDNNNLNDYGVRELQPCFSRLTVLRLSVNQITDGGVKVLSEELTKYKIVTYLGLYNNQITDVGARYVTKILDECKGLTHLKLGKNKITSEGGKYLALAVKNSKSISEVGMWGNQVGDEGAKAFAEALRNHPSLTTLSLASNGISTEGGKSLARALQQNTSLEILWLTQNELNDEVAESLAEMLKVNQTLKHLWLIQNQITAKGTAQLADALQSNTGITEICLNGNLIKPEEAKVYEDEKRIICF

HEK293 = test: SAR analysis of compounds that are cytotoxic to HEK293 - Set 3. [Related pubchem assays (depositor defined):AID1575, AID1578, AID1848, AID1849, AID2001, AID2333, AID2334, AID2335, AID2337, AID2469]; format: functional, cell-based; conditions: Homo sapiens
Tumor necrosis factor = Tumor necrosis factor (Homo sapiens, UniProt P01375); test: TNFa-triggered NF-kB activation inhibitors, SAR follow-up, cell-based, set 3 (AID 2801); format: functional
Tumor necrosis factor, sequence (P01375 whole entry): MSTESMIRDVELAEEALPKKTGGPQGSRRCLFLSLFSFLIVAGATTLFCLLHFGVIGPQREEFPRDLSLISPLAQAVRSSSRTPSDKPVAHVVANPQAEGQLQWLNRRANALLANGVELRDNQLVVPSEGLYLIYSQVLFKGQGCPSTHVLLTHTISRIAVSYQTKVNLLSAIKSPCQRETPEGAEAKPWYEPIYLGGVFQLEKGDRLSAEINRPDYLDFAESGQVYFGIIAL

O=Nc1ccc(O)c2ncccc12
EC50 (BJ [1]): 8.73 µM (active) | CC50 (Vero): 9.69 µM (active) | EC50 [2]: 8.56 µM (active) | IC50 [3]: 35.6 µM (inactive) | EC50 (BJ [4]): 12.9 µM (active) | IC50 (Exodeoxyribonuclease V): > 119 µM (inactive)

COc1ccc(-c2cc(N)n(S(=O)(=O)c3cccc([N+](=O)[O-])c3)n2)cc1OC
IC50 [5]: > 20 µM (inactive) | IC50 [6]: > 20 µM (inactive) | IC50 (HEK293): > 20 µM (inactive) | IC50 (Tumor necrosis factor): > 20 µM (inactive)
